In test [1] the target is T1, CD73 expressed on the MDA-MB-231 cell surface (Homo sapiens, UniProt P21589).
T1 construct: host or cells: MDA-MB-231
T1 sequence (P21589 27-549): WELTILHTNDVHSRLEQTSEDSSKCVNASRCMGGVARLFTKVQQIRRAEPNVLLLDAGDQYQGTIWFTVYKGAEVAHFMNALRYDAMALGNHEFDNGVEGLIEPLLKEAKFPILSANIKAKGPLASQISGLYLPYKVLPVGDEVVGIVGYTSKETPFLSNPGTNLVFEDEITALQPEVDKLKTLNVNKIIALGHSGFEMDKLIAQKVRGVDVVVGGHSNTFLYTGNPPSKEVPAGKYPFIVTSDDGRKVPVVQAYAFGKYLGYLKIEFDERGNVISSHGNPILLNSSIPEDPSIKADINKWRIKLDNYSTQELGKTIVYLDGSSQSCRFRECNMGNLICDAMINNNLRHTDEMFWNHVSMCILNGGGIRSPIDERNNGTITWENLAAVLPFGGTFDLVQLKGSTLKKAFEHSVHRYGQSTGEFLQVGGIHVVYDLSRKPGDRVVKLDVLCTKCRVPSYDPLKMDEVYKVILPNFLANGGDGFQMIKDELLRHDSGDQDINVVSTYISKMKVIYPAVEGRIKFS
Briefly: Cell-based CD73 enzyme inhibition assay on MDA-MB-231 cells. The conditions noted are these: AMP 100 μM, 3 h (FIG. 2). The protocol: The cell-based CD73 enzyme inhibition assay was performed essentially as described above for the cell-free assay, with the following modifications.
(§1) The cell-based CD73 enzyme inhibition assay was performed essentially as described above for the cell-free assay, with the following modifications. MDA-MB-231 human breast adenocarcinoma cells (ATCC CRM-HTB-26) were seeded at 2×10^4 cells/well/100 μL into 96-well tissue culture-treated plates (Corning Costar cat no. 3596) and incubated overnight at 37° C., 5% CO2. […] The 96-well plate was then centrifuged at 125×g for 5 min at room temperature and ATP (25 μL/well, 100 μM final) was combined with supernatant (25 μL/well) in a white opaque 96-well plate (Corning Costar cat no. 3912).
as §1, with “3912). […] Percent CD73 inhibition (y-axis) versus log10 inhibitor concentration (x-axis) were plotted using GraphPad Prism Version 8 and IC50's calculated using nonlinear regression analysis (Sigmoidal, 4 PL).” for “3912).”

The target of test [2] is T2, CD73 (Homo sapiens, UniProt P21589).
T2 sequence (P21589 27-549): T1 sequence (P21589 27-549)
Briefly: Cell-free CD73 enzyme inhibition assay. Type of test: biochemical. The conditions noted are these: recombinant human CD73 0.1 ng/μL, AMP 100 μM, 25 min at 37° C. (FIG. 1A, 1B). As for the experimental part: The cell-free CD73 enzyme inhibition assay was performed in a 96-well plate format using the CD73 Inhibitor Screening Assay Kit in accordance with the manufacturer's instructions (cat no. 72055, BPS Bioscience). […] Colorimetric detection reagent was then added (100 μL/well) and the free phosphate from the CD73 reaction was measured by reading the absorbance at 630 nm using the EnSpire multimode plate reader (PerkinElmer). Wells without test inhibitor (CD73 positive control) were included on each plate. Blank wells without test inhibitor and CD73 were subtracted from all wells. Percent CD73 inhibition versus inhibitor concentration was plotted using GraphPad Prism Version 8 and IC50's calculated using nonlinear regression analysis (Sigmoidal, 4 PL).
The cell-free CD73 enzyme inhibition assay was performed in a 96-well plate format using the CD73 Inhibitor Screening Assay Kit in accordance with the manufacturer's instructions (BPS Bioscience cat no. 72055). […] Colorimetric detection reagent was then added (100 μL/well) and the free phosphate from the CD73 reaction was measured by reading the absorbance at 630 nm using the EnSpire multimode plate reader (PerkinElmer). Wells without test inhibitor (CD73 positive control) were included on each plate. Blank wells without test inhibitor and CD73 were subtracted from all wells. Percent CD73 inhibition (y-axis) versus log10 inhibitor concentration (x-axis) was plotted using GraphPad Prism Version 8 and IC50's calculated using nonlinear regression analysis (Sigmoidal, 4 PL).

The target in test [3] is T3, surface-expressed CD73 on human T cells (Homo sapiens, UniProt P21589).
T3 construct: 72400 (T cells); host or cells: human PBMCs / human T cells
T3 sequence (P21589 27-549): T1 sequence (P21589 27-549)
Description: Human immune cell-based CD73 enzyme inhibition assay (T cells). The conditions noted are these: 2.5-3 h. As for the experimental part:
(§2) The human immune cell-based CD73 enzyme inhibition assay was performed essentially as described above For the cell-free assay, with the following modifications. Human PBMCs (cat. no. HUMAN-PBMC-U-211140) or T cells (cat. no. 72400, Stem Cell Tech) were seeded at 8×10^3 cells/well into 96-well tissue culture-treated plates. […] Percent CD73 inhibition versus concentration were plotted using GraphPad Prism Version 8 and IC50's calculated using nonlinear regression analysis ([inhibitor]vs normalized response).

The target in test [4] is T4, surface-expressed CD73 on human PBMCs (Homo sapiens, UniProt P21589).
T4 construct: 72400 (T cells); host or cells: human PBMCs / human T cells
T4 sequence (P21589 27-549): T1 sequence (P21589 27-549)
Description: Human immune cell-based CD73 enzyme inhibition assay (PBMCs). The conditions noted are these: AMP 300 μM, 2.5-3 h. The protocol:
as §2

For `C#CCOCCOCCOCCOCCOC1CCC2(CC1)CN(c1nc(Cl)nc3c1cnn3[C@@H]1O[C@H](COCP(=O)(O)O)[C@@H](O)[C@H]1O)C2` [Int-258], the IC50 in test [1] came to 41.4 nM; in test [2] it was 26.1 nM.
As for `O=C(CCOCCOCCOCCOCCn1cc(COCCOCCOCCOCCOC2CCC3(CC2)CN(c2nc(Cl)nc4c2cnn4[C@@H]2O[C@H](COCP(=O)(O)O)[C@@H](O)[C@H]2O)C3)nn1)Oc1c(F)cc(F)cc1F` [Int-259], the IC50 was 1.47 nM in test [3] (T Cells - Experiment 1, AMP 300 μM); 0.12 nM in test [3] (T Cells - Experiment 2, AMP 300 μM); 2.87 nM in test [4].

For the origin of these results see patent publication US20260000781A1, “FC CONJUGATES INCLUDING AN INHIBITOR OF CD73 AND USES THEREOF” (Cidara Therapeutics, Inc., priority 2022, published 2026).
